Tested on: NCI 60 cell panel
Assay: NCI 60 Cell One-Dose Screen
Assay type: cell-based, human
Details: 1.00E−5 Molar
Procedure: General Description. As of early 2007 all compounds submitted to the NCI 60 Cell screen are tested initially at a single high dose (10^-5 M) in the full NCI 60 cell panel. Only compounds which satisfy pre-determined threshold inhibition criteria in a minimum number of cell lines will progress to the full 5-dose assay. The threshold inhibition criteria for progression to the 5-dose screen was selected to efficiently capture compounds with anti-proliferative activity based on careful analysis of historical DTP screening data. The threshold criteria may be updated as additional data becomes available.
Interpretation of One-Dose Data. The One-dose data will be reported as a mean graph of the percent growth of treated cells and will be similar in appearance to mean graphs from the 5-dose assay. The number reported for the One-dose assay is growth relative to the no-drug control, and relative to the time zero number of cells. This allows detection of both growth inhibition (values between 0 and 100) and lethality (values less than 0). This is the same as for the 5-dose assay, described below. For example, a value of 100 means no growth inhibition. A value of 40 would mean 60% growth inhibition. A value of 0 means no net growth over the course of the experiment. A value of −40 would mean 40% lethality. A value of −100 means all cells are dead. Information from the One-dose mean graph is available for COMPARE analysis.
The human tumor cell lines of the cancer screening panel are grown in RPMI 1640 medium containing 5% fetal bovine serum and 2 mM L-glutamine. For a typical screening experiment, cells are inoculated into 96 well microtiter plates in 100 μL at plating densities ranging from 5,000 to 40,000 cells/well depending on the doubling time of individual cell lines. After cell inoculation, the microtiter plates are incubated at […], 5% CO2, 95% air and 100% relative humidity for 24 h prior to addition of experimental drugs.
After 24 h, two plates of each cell line are fixed in situ with TCA, to represent a measurement of the cell population for each cell line at the time of drug addition (Tz). Experimental drugs are solubilized in dimethyl sulfoxide at 400-fold the desired final maximum test concentration and stored frozen prior to use. At the time of drug addition, an aliquot of frozen concentrate is thawed and diluted to twice the desired final maximum test concentration with complete medium containing 50 µg/ml gentamicin. Additional four, 10-fold or ½ log serial dilutions are made to provide a total of five drug concentrations plus control. Aliquots of 100 μl of these different drug dilutions are added to the appropriate microtiter wells already containing 100 μl of medium, resulting in the required final drug concentrations.
Following drug addition, the plates are incubated for an additional 48 h at 37° C., 5% CO2, 95% air, and 100% relative humidity. For adherent cells, the assay is terminated by the addition of cold TCA. Cells are fixed in situ by the gentle addition of 50 μl of cold 50% (w/v) TCA (final concentration, 10% TCA) and incubated for 60 minutes at 4° C. The supernatant is discarded, and the plates are washed five times with tap water and air dried. Sulforhodamine B (SRB) solution (100 μl) at 0.4% (w/v) in 1% acetic acid is added to each well, and plates are incubated for 10 minutes at room temperature. After staining, unbound dye is removed by washing five times with 1% acetic acid and the plates are air dried. Bound stain is subsequently solubilized with 10 mM trizma base, and the absorbance is read on an automated plate reader at a wavelength of 515 nm. For suspension cells, the methodology is the same except that the assay is terminated by fixing settled cells at the bottom of the wells by gently adding 50 μl of 80% TCA (final concentration, 16% TCA). […]

SMILES: Cn1nc(C(F)(F)F)cc1-c1ccc(OCc2ccc(Cl)cc2)c(-c2cc(C(F)(F)F)cc(C(F)(F)F)c2)c1O [NSC: D-795899/1]
- Growth Percent (786-0 (Renal Cancer)): 2.41%
- Growth Percent (A498 (Renal Cancer)): −26.88%
- Growth Percent (A549/ATCC (Non-Small Cell Lung Cancer)): 10.52%
- Growth Percent (ACHN (Renal Cancer)): 7.22%
- Growth Percent (BT-549 (Breast Cancer)): 2.72%
- Growth Percent (CCRF-CEM (Leukemia)): 6.82%
- Growth Percent (COLO 205 (Colon Cancer)): −90.71%
- Growth Percent (DU-145 (Prostate Cancer)): 20.58%
- Growth Percent, Delta (Delta of the mean graph): 89.50%
- Growth Percent (EKVX (Non-Small Cell Lung Cancer)): 7.70%
- Growth Percent (HCC-2998 (Colon Cancer)): 5.78%
- Growth Percent (HCT-15 (Colon Cancer)): 7.50%
- Growth Percent (HCT-116 (Colon Cancer)): 3.65%
- Growth Percent (HL-60(TB) (Leukemia)): −39.89%
- Growth Percent (HOP-62 (Non-Small Cell Lung Cancer)): −9.87%
- Growth Percent (HOP-92 (Non-Small Cell Lung Cancer)): −20.08%
- Growth Percent (HS 578T (Breast Cancer)): 4.39%
- Growth Percent (HT29 (Colon Cancer)): 3.77%
- Growth Percent (IGROV1 (Ovarian Cancer)): 31.40%
- Growth Percent (K-562 (Leukemia)): 1.63%
- Growth Percent (KM12 (Colon Cancer)): 5.04%
- Growth Percent (LOX IMVI (Melanoma)): 6.23%
- Growth Percent (M14 (Melanoma)): 6.30%
- Growth Percent (MALME-3M (Melanoma)): −15.91%
- Growth Percent (MCF7 (Breast Cancer)): 3.01%
- Growth Percent (MDA-MB-231/ATCC (Breast Cancer)): −31.51%
- Growth Percent (MDA-MB-435 (Melanoma)): 11.38%
- Growth Percent (MDA-MB-468 (Breast Cancer)): -5.00%
- Growth Percent (MOLT-4 (Leukemia)): −11.7%
- Growth Percent, Mean (Mean over the cell panel): -1.21%
- Growth Percent (NCI-H23 (Non-Small Cell Lung Cancer)): 0.56%
- Growth Percent (NCI-H226 (Non-Small Cell Lung Cancer)): 13.90%
- Growth Percent (NCI-H322M (Non-Small Cell Lung Cancer)): 5.67%
- Growth Percent (NCI-H460 (Non-Small Cell Lung Cancer)): −10.44%
- Growth Percent (NCI-H522 (Non-Small Cell Lung Cancer)): −9.19%
- Growth Percent (NCI/ADR-RES (Ovarian Cancer)): 1.98%
- Growth Percent (OVCAR-3 (Ovarian Cancer)): 7.02%
- Growth Percent (OVCAR-4 (Ovarian Cancer)): 20.71%
- Growth Percent (OVCAR-5 (Ovarian Cancer)): 29.10%
- Growth Percent (OVCAR-8 (Ovarian Cancer)): 8.36%
- Growth Percent (PC-3 (Prostate Cancer)): 10.73%
- Growth Percent (RPMI-8226 (Leukemia)): −14.54%
- Growth Percent (RXF 393 (Renal Cancer)): −14.51%
- Growth Percent, Range (Range over the cell panel): 122.11%
- Growth Percent (SF-268 (CNS Cancer)): 16.59%
- Growth Percent (SF-295 (CNS Cancer)): −22.60%
- Growth Percent (SF-539 (CNS Cancer)): 2.13%
- Growth Percent (SK-MEL-2 (Melanoma)): −33.97%
- Growth Percent (SK-MEL-28 (Melanoma)): 28.00%
- Growth Percent (SK-MIEL-5 (Melanoma)): −36.59%
- Growth Percent (SK-OV-3 (Ovarian Cancer)): −13.54%
- Growth Percent (SN12C (Renal Cancer)): 7.93%
- Growth Percent (SNB-19 (CNS Cancer)): 22.58%
- Growth Percent (SNB-75 (CNS Cancer)): 4.92%
- Growth Percent (SR (Leukemia)): −4.24%
- Growth Percent (SW-620 (Colon Cancer)): 13.14%
- Growth Percent (T-47D (Breast Cancer)): −11.64%
- Growth Percent (TK-10 (Renal Cancer)): 9.29%
- Growth Percent (U251 (CNS Cancer)): 6.17%
- Growth Percent (UACC-62 (Melanoma)): 3.02%
- Growth Percent (UACC-257 (Melanoma)): −7.16%
- Growth Percent (UO-31 (Renal Cancer)): −1.27%

Reference: patent US20250084040A1, “SUBSTITUTED HETEROCYCLES AS c-MYC TARGETING AGENTS” (Northwestern University, priority 2018, published 2025)
